Reference: ChEMBL document CHEMBL1926625, “Identification of benzoxazin-3-one derivatives as novel, potent, and selective nonsteroidal mineralocorticoid receptor antagonists” (J Med Chem, 2011)

Columns and labels:
[1] = biological target: T1, Glucocorticoid receptor (Homo sapiens, UniProt P04150); assay: Displacement of [3H]dexomethasone from GR
T1 sequence (P04150 whole entry): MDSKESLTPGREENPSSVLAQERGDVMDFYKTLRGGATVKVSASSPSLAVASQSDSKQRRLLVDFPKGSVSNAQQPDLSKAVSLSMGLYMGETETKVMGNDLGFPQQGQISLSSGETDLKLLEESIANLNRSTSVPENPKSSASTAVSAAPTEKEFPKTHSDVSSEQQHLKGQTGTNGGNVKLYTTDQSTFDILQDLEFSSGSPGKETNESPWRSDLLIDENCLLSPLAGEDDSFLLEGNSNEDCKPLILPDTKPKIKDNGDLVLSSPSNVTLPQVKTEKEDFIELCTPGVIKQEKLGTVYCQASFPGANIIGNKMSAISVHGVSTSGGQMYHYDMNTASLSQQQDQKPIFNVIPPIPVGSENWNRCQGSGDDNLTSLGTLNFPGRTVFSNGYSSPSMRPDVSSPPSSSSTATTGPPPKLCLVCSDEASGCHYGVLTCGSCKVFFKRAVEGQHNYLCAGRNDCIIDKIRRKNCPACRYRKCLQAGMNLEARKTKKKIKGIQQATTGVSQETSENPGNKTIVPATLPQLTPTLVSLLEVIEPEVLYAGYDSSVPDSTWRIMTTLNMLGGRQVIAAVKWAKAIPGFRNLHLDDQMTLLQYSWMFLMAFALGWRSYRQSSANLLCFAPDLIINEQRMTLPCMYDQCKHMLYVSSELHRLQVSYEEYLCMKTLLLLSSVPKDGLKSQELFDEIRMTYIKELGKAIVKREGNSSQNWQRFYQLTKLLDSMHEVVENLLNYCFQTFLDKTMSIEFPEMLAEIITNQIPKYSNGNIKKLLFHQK

[2] = biological target: T2, Progesterone receptor (Homo sapiens, UniProt P06401); assay: Displacement of [3H]progesterone from PR
T2 sequence (P06401 whole entry): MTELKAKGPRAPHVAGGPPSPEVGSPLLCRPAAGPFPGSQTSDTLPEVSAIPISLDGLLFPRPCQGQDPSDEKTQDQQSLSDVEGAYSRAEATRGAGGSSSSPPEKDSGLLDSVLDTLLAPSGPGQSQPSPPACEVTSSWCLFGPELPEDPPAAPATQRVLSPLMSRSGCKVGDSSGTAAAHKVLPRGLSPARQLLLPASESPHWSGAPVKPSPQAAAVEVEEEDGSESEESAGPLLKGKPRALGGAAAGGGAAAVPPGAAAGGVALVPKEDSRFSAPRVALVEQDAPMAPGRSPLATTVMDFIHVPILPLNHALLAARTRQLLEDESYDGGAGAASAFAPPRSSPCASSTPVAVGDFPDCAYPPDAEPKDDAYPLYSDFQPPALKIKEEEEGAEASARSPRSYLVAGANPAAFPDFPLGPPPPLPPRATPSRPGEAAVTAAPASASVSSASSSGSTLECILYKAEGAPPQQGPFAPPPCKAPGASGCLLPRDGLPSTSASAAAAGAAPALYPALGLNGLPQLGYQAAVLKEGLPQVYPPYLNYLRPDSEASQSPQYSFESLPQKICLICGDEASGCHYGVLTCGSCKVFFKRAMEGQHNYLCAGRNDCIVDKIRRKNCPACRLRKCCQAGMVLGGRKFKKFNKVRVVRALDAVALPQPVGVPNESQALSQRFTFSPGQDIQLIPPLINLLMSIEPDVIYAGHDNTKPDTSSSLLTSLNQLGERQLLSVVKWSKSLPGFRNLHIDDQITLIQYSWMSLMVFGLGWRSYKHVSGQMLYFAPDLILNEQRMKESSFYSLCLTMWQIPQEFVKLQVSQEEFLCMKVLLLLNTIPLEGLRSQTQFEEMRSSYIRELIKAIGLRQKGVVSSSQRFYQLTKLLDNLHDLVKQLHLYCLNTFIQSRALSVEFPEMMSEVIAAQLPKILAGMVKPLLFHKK

[3] = Clearance in Sprague-Dawley rat at 3 mg/kg, iv and 10 mg/kg, po; assay type: ADME, organism-based; details: in vivo
[4] = Volume of distribution at steady state in Sprague-Dawley rat at 3 mg/kg, iv and 10 mg/kg, po; assay type: ADME, organism-based; details: in vivo, read-out: Vdss
[5] = AUC (0 to 24 hrs) in Sprague-Dawley rat at 10 mg/kg, po; assay type: ADME, organism-based; design: time < 24 hr, dose 10 mg/kg, route oral; details: plasma
[6] = Bioavailability in Sprague-Dawley rat at 3 mg/kg, iv and 10 mg/kg, po; assay type: ADME, organism-based; details: in vivo
[7] = biological target: T3, Mineralocorticoid receptor (Homo sapiens, UniProt P08235)
T3 sequence (P08235 whole entry): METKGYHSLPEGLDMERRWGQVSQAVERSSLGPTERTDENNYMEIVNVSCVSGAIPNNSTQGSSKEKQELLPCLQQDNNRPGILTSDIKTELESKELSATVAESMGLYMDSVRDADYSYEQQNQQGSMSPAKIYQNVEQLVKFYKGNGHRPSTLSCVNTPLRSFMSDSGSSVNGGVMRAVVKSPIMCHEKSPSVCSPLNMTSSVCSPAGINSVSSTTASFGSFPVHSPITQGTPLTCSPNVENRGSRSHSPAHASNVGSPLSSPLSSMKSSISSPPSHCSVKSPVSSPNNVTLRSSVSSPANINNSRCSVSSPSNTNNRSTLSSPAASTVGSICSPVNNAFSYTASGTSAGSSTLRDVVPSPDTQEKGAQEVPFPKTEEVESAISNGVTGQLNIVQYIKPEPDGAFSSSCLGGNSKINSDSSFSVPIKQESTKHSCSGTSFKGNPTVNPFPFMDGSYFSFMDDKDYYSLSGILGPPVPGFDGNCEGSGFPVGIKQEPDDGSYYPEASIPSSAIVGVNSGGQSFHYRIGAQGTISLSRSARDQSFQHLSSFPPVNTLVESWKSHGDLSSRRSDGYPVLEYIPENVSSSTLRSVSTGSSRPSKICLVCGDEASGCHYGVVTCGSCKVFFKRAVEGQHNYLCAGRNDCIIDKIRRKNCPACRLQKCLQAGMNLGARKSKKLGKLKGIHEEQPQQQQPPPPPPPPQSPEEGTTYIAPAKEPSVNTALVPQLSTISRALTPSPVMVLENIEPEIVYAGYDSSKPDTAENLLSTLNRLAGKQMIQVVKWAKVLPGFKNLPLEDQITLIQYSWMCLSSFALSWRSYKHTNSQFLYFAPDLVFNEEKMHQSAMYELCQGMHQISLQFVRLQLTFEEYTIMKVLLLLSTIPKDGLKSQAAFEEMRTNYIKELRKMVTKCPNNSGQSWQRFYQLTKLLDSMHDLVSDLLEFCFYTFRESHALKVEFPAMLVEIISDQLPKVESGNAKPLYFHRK
Description: Antagonist activity at human MR transfected in human COS1 cells after 1 day by luciferase reporter gene assay

[8] = biological target: T3, Mineralocorticoid receptor; assay: biochemical
Description: Displacement of [3H]aldosterone from cytosolic human MR expressed in HEK293 cells after 16 hrs by scintillation counting

IC50 [1]: 1800 nM
IC50 [2]: 1900 nM
clearance [3]: 22.1 mL/min/kg
Vd [4]: 4.63 L/kg
AUC(0-t) at 24 h [5]: 3830 ng·h/mL
bioavailability [6]: 50.7%
IC50 [7]: 43 nM
IC50 [8]: 41 nM
Structure (SMILES): Cc1cc(F)ccc1-n1nc(C(F)(F)F)cc1-c1ccc2c(c1)NC(=O)CO2
